The source of these data is US20170202936A1, “Identification, Optimization And Use Of Cryptic HLA-B7 Epitopes For Immunotherapy” (VAXON BIOTECH, priority 2006, published 2017).

“Also recorded” adds a separate entry of the source. No end group written: not given here.

For one series, the target named is T1, HLA-B*0702 (Homo sapiens, UniProt P01889).
T1 construct: expressed in transfected cells; host or cells: human T2 cells transfected with HLA-B*0702 (T2-B7)
Nature of the series: Measurement of peptide relative affinity to HLA-B*0702 (T2-B7 cells, ME-1 mAb staining). The class given is binding. Conditions: for RA (relative affinity for HLA-B*0702): T2-B7 cells, 16 hours 37° C., ratio of concentrations inducing 20% HLA-B*0702 expression vs reference peptide CMV265-274; for RA: class symbols, Table IV. As to the method: The affinity of a peptide for HLA-B*0702 can be determined by methods known in the art, for instance by the assay described by Rohrlich et al., 2003. Results are expressed as relative affinity (RA) when compared to a reference peptide. […] Peptides with RA greater than 10 are therefore considered to be cryptic peptides (or epitopes).
Measurement of Peptide Relative Affinity to HLA-B*0702. The protocol used has been described previously (Rohrlich et al., 2003). Briefly, T2-B7 cells were incubated at 37° C. for 16 hours with peptides concentrations ranging from 100 μM to 0.1 μM, and then stained with ME-1 monoclonal antibody (mAb) to quantify the surface expression of HLA-B*0702. For each peptide concentration, the HLA-B*0702 specific staining was calculated as the percentage of staining obtained with 100 μM of the reference peptide CMV265-274 (R10V; […], SEQ ID NO: 9). The relative affinity (RA) was determined as: RA=(Concentration of each peptide that induces 20% of HLA-B*0702-expression/Concentration of the reference peptide that induces 20% of HLA-B*0702 expression).

Series [1] relates to SK-MES-1, HBL-100, SW-480 and HSS human tumor cell lines. Briefly: Cytotoxicity of peptide-induced human CTL against human tumor cell lines. The following applies: one responding donor. The class given is cell-based. As to the method:
Cells. HLA-B*0702 transfected murine RMA-B7 and human T2-B7 cells were previously described (Rohrlich et al., 2003). COS-7 and WEHI-164 clone 13 cells were provided by F. Jotereau (INSERM 463, Nantes, France). The HLA-B*0702 positive SK-MES-1 (lung cancer), HBL-100 (breast cancer), and the HLA-B*0702 negative SW-480 (colon cancer) and HSS (myeloma) cell lines were used as targets of human CTL. All cell lines were grown in FCS 10% supplemented RPMI1640 culture medium.
(§1) Generation of CTL from human PBMC. PBMC were collected by leukapheresis from healthy HLA-B*0702 volunteers. Dendritic cells (DC) were produced from adherent cells cultured for seven days (2×10^6 cells/ml) in the presence of 500 IU/ml GM-CSF and 500 IU/ml IL-4 (R&D Systems, Minneapolis, Minn.) in complete medium (RPMI-1640 supplemented with 10% heat inactivated human AB serum, […] L-Glutamine and antibiotics). On day seven, DC were pulsed with 10 μM peptides for 2 hrs; maturation agents Poly I:C (Sigma, Oakville, Canada) at 100 ng/ml and anti-CD40 mAb (clone G28-5, ATCC, Manassas, Va.) at 2 μg/ml were added in the culture and DCs were incubated at 37° C. overnight or up to 48 hours. Mature DC were then irradiated (3500 rads). […]
(§2) Cytotoxic assay. […] Percentage of specific lysis was determined as: % Lysis=(Experimental Release−Spontaneous Release)/(Maximal Release−Spontaneous Release)×100.

The subject of the next series is T2-B7 targets. Briefly: Generation of CTL from human PBMC of healthy donors, cytotoxicity against peptide-loaded T2-B7 targets. Format: cell-based. The following applies: one responding donor. As to the method:
as §1, with “rads). CD8+ cells were purified by positive selection with CD8 MicroBeads (Miltenyi Biotec, Auburn, Calif.) according to the manufacturer's instructions. 2×10^5 CD8^+ cells+6×10^4 CD8^− cells were stimulated with 2×10^4 peptide pulsed DC in complete culture medium supplemented with 1000 IU/ml IL-6 and 5 IU/ml IL-12 (R&D Systems, Minneapolis, Minn.) in round-bottomed 96 well plates.” for “rads).”
as §2

Series [2] deals with HLA-B*0702 transgenic mice. Briefly: CTL induction in vivo in HLA-B*0702 transgenic mice (immunogenicity, cytotoxic assay on peptide-loaded RMA-B7 targets). Set-up: key: + for immunogenicity or native peptide cross recognition means that the peptide induced a specific response in at least one HLA-B*0702 transgenic mouse, able to recognized the corresponding native peptide. The following applies: Table V. As to the method:
(§3) CTL Induction in vivo in HLA-B*0702 Transgenic Mice. Mice were injected subcutaneously with 100 μg of peptide emulsified in Incomplete Freund's Adjuvant (IFA) in the presence of 150 μg of the I-A^b restricted HBVcore128 T helper epitope ([…], SEQ ID NO: 10). After 11 days, 5×10^7 spleen cells were stimulated in vitro with peptide (10 μM). On day 6 of culture, the bulk responder populations were tested for specific cytotoxicity.
(§4) Cytotoxic assay. Targets were labelled with 100 μCi of Cr^51 for 60 min, plated in 96-well V-bottomed plates (3×10^3 cell/well in 100 μL of RPMI 1640 medium) and, when necessary, pulsed with peptides (1 μM) at 37° C. for 2 hours. Effectors were then added in the wells and incubated at 37° C. for 4 hours. Percentage of specific lysis was determined as: % Lysis=(Experimental Release−Spontaneous Release)/(Maximal Release−Spontaneous Release)×100.
(§5) HLA-B7 transgenic mice were vaccinated with the selected peptides, and eleven days later, their spleen cells were in vitro stimulated with the peptide.

In series [3] the test system is HLA-B*0702 transgenic mice. Described as above. Also noted: key: +: means that a specific immunoresponse was generated at least one HLA-B*0702 transgenic mice. Conditions: Table IV. As to the method:
as §3, §4, §5

Series [4] concerns HLA-B*0702 transgenic mice. The description is as above. Set-up: key to Corresponding native peptide cross-reconnaissance: + for immunogenicity or native peptide cross recognition means that the peptide induced a specific response in at least one HLA-B*0702 transgenic mouse, able to recognized the corresponding native peptide. Conditions: for Corresponding native peptide cross-reconnaissance: CTL induced in HLA-B*0702 transgenic mice; for Immunogenicity: specific CTL immune response (in words) / Recognition of the native peptide by CTL generated with the optimized peptide (in words): HLA-B*0702 transgenic mice. As to the method: as §3, §4, §5

Consider EPITKAEIL (MAGE-A121.4 antigen peptide), for which, in the series with HLA-B*0702, the “Affinity for HLA-B*0702 (in words)” value is “low affinity” and the “RA (relative affinity for HLA-B*0702)” value was >10.

For the sequence EPVTKAEML [MAGE-A121.1], in the series with HLA-B*0702, the “Affinity for HLA-B*0702 (in words)” value was “low affinity” and the “RA (relative affinity for HLA-B*0702)” value is >10.

Regarding APRCRAVRSL [TERT4], the “Cytotoxicity of human CTL against human tumor cell lines” value in series [1] was “killed the HLA-B*0702 TERT+SK-MES-1 and HBL-100 but not the HLA-B*0702-TERT+SW-480 and HSS human tumor cell lines”. Moreover, the “Cytotoxicity of human CTL against peptide-loaded T2-B7 targets” value with T2-B7 targets is “killed T2-B7 targets presenting TERT4 but not T2-B7 cells presenting the irrelevant Nef peptide”.

Take “APKHSDCLA (Her-2/neu246A1 optimized peptide derived from the cryptic peptide of SEQ ID NO4) [Her2/neu246A1]”: the Immunogenicity entry in series [2] and in series [3] was “+” each time. Also, in series [4], the “Corresponding native peptide cross-reconnaissance” value is reported as “+”.

Consider EPFTKAEML (MAGE-A121.2 antigen peptide), for which, in the series with HLA-B*0702, the “Affinity for HLA-B*0702 (in words)” value is “low affinity” and the “RA (relative affinity for HLA-B*0702)” value was >10.

Turning to APLSLGLET (Hsp70 397 antigen peptide), in series [4], the “Immunogenicity: specific CTL immune response (in words)” value (“Immunogenicity … (in words)” below) was “Only the high affinity TERT4 was immunogenic”. For the same sequence, in the series with HLA-B*0702, the “Affinity for HLA-B*0702 (in words)” value is “low affinity” and the “RA (relative affinity for HLA-B*0702)” value is recorded as >10.

APRVSIRLPL (EphA2): in the series with HLA-B*0702, the RA entry was “++ (++ = RA < 1)”.

Regarding “APRSPLAPS (HER-2/neu1069 HLA-B*0702 restricted cryptic epitope) [Her2/neu1069]”, the “Immunogenicity … (in words)” value in series [4] is “not immunogenic”.

In the case of “APKANKEIL (Her-2/neu760A1 optimized peptide derived from the cryptic peptide of SEQ ID NO3) [Her2/neu760A1]”, the Immunogenicity entry in series [2] and in series [3] was “+” in each case. Besides, the “Corresponding native peptide cross-reconnaissance” value in series [4] is “+”.

For “APRASSPLL (a HLA-B*0702 restricted peptide)”, in series [3], the Immunogenicity result is reported as “+”.

Turning to “APRMPEAAL (a HLA-B*0702 restricted peptide)”, the Immunogenicity result in series [3] is given as “+”.

For “APRGVPQIEL (a HLA-B*0702 restricted peptide)”, in series [3], the Immunogenicity entry is “+”.

On to “SPKANKEIL (HER-2/neu760 HLA-B*0702 restricted cryptic epitope) [Her2/neu760]”, for which the “Immunogenicity … (in words)” value in series [4] is “not immunogenic”.

Regarding APRRRLGCEL (TERT antigen peptide), in series [3], the Immunogenicity entry is listed as “+”. In the series with HLA-B*0702, the RA entry is reported as “+ (+ = 1 < RA < 10)”.

“YPEEISSMVL (peptide of Hsp70_115) [Hsp70 115]”: the “Immunogenicity … (in words)” value in series [4] is given as “Only the high affinity TERT4 was immunogenic”. Moreover, the “Affinity for HLA-B*0702 (in words)” value with HLA-B*0702 is reported as “low affinity; also recorded: non binders”.

On to “APRSPLAPL (Her-2/neu1069L9 optimized peptide derived from the cryptic peptide of SEQ ID NO2) [Her2/neu1069L9]”, for which the Immunogenicity result in series [2] and in series [3] was “+” each time. Moreover, the “Corresponding native peptide cross-reconnaissance” value in series [4] is on record as “+”. For the same sequence, the RA result with HLA-B*0702 is given as “++ (++ = RA < 1)”.

As to “APRTKAEML (MAGE-121.1 A1R3 optimized peptide)”, the Immunogenicity entry in series [3] is reported as “+”. For the same sequence, the RA result with HLA-B*0702 is “+ (+ = 1 < RA < 10)”.

As for “APVTKAEML (MAGE-121.1 A1 optimized peptide) [MAGE-121.1/A1]”, the “RA (relative affinity for HLA-B*0702)” value with HLA-B*0702 is reported as >10.

Take “APREISSMVL (HSP70_115A1R3 optimized peptide) [Hsp70115A1R3]”: the Immunogenicity result in series [3] is on record as “+”. In series [4], the “Immunogenicity … (in words)” value is “induced an immune response in the majority of vaccinated mice” and the “Recognition of the native peptide by CTL generated with the optimized peptide (in words)” value was “recognized the optimized peptide but not the corresponding native peptide”. Further, in the series with HLA-B*0702, the “Affinity for HLA-B*0702 (in words)” value is “strong affinity” and the RA result is “+ (+ = 1 < RA < 10)”.

Regarding “GPKHSDCLA (HER-2/neu246 HLA-B*0702 restricted cryptic epitope) [Her2/neu246]”, the “Immunogenicity … (in words)” value in series [4] is given as “not immunogenic”.

Take “APRPWTPCL (a HLA-B*0702 restricted peptide)”: the Immunogenicity result in series [3] is recorded as “+”. Besides, the RA result with HLA-B*0702 is given as “+ (+ = 1 < RA < 10)”.

As for APREYVNAL (Her-2/neu), the Immunogenicity entry in series [3] is reported as “+”. The RA entry with HLA-B*0702 is recorded as “+ (+ = 1 < RA < 10)”.

As for APRMHCAVDL (EphA2), the Immunogenicity result in series [3] was “+”. Moreover, in the series with HLA-B*0702, the RA result is recorded as “++ (++ = RA < 1)”.

As to “YPVTNAVITV (Hsp70 137(10) antigen peptide) [Hsp70 137 (10)]”, the “Immunogenicity … (in words)” value in series [4] is on record as “Only the high affinity TERT4 was immunogenic”. The “Affinity for HLA-B*0702 (in words)” value in the series with HLA-B*0702 is given as “low affinity; also recorded: non binders”.

Regarding “APEEISSMVL (HSP70_115A1 optimized peptide) [Hsp70 115A1]”, the “RA (relative affinity for HLA-B*0702)” value in the series with HLA-B*0702 is on record as >10.

“APRQLGREL (a HLA-B*0702 restricted peptide)”: in series [3], the Immunogenicity result is “+”.

“APRSLGLEL (HSP70_397R3L9 optimized peptide) [Hsp70397R3L9]”: the Immunogenicity entry in series [3] was “+”. Besides, in series [4], the “Immunogenicity … (in words)” value was “induced an immune response in the majority of vaccinated mice” and the “Recognition of the native peptide by CTL generated with the optimized peptide (in words)” value was “recognized the optimized peptide but not the corresponding native peptide”. For the same sequence, in the series with HLA-B*0702, the “Affinity for HLA-B*0702 (in words)” value was “strong affinity” and the RA result is given as “++ (++ = RA < 1)”.

For the sequence APRALVETL (MAGE-A antigen peptide), in series [3], the Immunogenicity result was “+”. Besides, the RA result with HLA-B*0702 was “+ (+ = 1 < RA < 10)”.
